# *1 amine or outer side, *2 acyl side, *3 side chain or, on linkers, in order; H or OH if unused. Where a SMILES comes first, the peptide text is derived from it. Side-chain parts run from the residue outwards. [ ]: non-standard residue; d: D form. The star is where a group is joined. C18 diacid = O=C(O)CCCCCCCCCCCCCCCCC(=O)*; γGlu = O=C(O)[C@H](CCC(=O)[*:2])N[*:1]; Api = NC1(C(=O)O)CCNCC1; AEEA = NCCOCCOCC(=O)O; Aib = CC(C)(N)C(=O)O
# Tests used:
# [1] = target: T1, human CRF2a receptor (Homo sapiens, UniProt Q13324); assay: Activity at human CRF2a receptor, cAMP functional assay in TeloHEAC cells; format: cell-based; settings: TeloHEAC cells stably expressing human CRF2a receptor, relative to urocortin 2 (100 nM = 100%)
# T1 construct: expressed in transfected cells; host or cells: TeloHEAC cells
# T1 sequence (Q13324 1-411): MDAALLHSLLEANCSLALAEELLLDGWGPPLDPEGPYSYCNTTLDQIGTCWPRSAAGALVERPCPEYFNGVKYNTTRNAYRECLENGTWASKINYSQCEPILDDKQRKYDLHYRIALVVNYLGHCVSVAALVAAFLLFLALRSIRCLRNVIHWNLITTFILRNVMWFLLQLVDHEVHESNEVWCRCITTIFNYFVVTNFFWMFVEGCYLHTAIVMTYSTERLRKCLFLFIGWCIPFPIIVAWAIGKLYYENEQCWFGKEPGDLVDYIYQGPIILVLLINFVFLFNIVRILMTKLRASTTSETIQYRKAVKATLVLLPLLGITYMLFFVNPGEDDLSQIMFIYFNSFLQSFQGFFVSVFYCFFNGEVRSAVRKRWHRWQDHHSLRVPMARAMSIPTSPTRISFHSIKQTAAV
# How it was run: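 cAMP accumulation was measured by HTRF 665/620 nm ratio after 30 min at 37° C compound exposure (16 twofold dilutions) of CRF2a-expressing TeloHEAC cells, 10000/well, in HEPES-buffered HBSS plus IBMX. Activity was normalised to urocortin 2 at 100 nM (100%), and EC50 was the concentration giving half-maximal activation.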
# [2] = Chemical stability in buffer (pH 7.4 / pH 4.5), % purity loss; format: physicochemical; settings: 40° C. vs 5° C., 14 or 28 days; for Buffer stability pH 4.5 % purity loss: 100 mM acetate buffer pH 4.5; for Buffer stability pH 7.4 % purity loss: 100 mM phosphate buffer pH 7.4
# How it was run: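 Compounds dissolved at 10 mg/mL target in 100 mM phosphate (pH 7.4) or 100 mM acetate (pH 4.5) buffer for 1 h at room temperature, then centrifuged. Diluted supernatant stored at 5 °C or 40 °C for 14 or 28 days; % purity loss by LC-UV.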
# [3] = In vitro subcutaneous tissue supernatant (SCts) stability and metabolite identification, rat; format: in vitro ADME; set-up: remaining at 2 h: dose or concentration left out as unconfirmed; settings: male, Sprague Dawley; rat subcutaneous tissue supernatant (SCts), 37° C, 2 h
# [4] = target: T2, CFR1R receptor (Homo sapiens, UniProt P34998); assay: Activity at anti-target CFR1R receptor, cAMP assay in CRF1R-overexpression CHO-K1 cells; format: cell-based; settings: 100% = Sauvagine at 100 nM; for EC50: cAMP
# T2 construct: host or cells: CHO-K1 (clone 2)
# T2 sequence (P34998 24-415): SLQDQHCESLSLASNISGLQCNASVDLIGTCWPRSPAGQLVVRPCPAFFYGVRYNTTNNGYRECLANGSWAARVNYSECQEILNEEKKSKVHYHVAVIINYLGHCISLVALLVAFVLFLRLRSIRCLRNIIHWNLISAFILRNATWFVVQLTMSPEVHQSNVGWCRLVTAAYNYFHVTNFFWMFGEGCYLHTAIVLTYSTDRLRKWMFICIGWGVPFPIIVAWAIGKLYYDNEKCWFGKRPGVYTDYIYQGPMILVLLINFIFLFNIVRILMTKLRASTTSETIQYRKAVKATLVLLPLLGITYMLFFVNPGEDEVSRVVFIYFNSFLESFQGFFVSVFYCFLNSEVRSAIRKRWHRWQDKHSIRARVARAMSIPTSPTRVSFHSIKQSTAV
# How it was run: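 cAMP readout in CRF1R-overexpressing CHO-K1 cells (clone 2), run as for the TeloHAEC assay at 4000 cells/well final. Cells came from cryopreserved banks. Sauvagine at 100 nM defined 100% activation.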
# [5] = Pharmacokinetics in male Sprague Dawley rats after subcutaneous administration; format: in vivo; settings: plasma, rat, SC, 0.05 mg/kg
# Procedure: The pharmacokinetics of UCN-2 derivatives was studied in male Sprague Dawley rats after subcutaneous administration (SC) at 0.05, 0.1, 0.3 or 1 mg/kg. Peptides were formulated as a solution in 10 mM phosphate pH 7.4 buffer+glycerol 85% (2.3% v/v)). […] The supernatant (200 μL) was analyzed by LC-MSMS. Pharmacokinetic parameters were calculated using established non-compartmental methods. The area under the plasma concentration curve versus time (AUC) was determined using Watson LIMS (version 7.6), with linear trapezoidal interpolation in the ascending slope and logarithmic trapezoidal interpolation in the descending slope. The portion of the AUC from the last measurable concentration to infinity was estimated from the equation, Ct/kel, where Ct represents the last measurable concentration and kel is the elimination rate constant. The latter was determined from the concentration curve versus time by linear regression at the terminal phase of the semi-logarithmic plot.
EC50 [1] [pM],Buffer stability pH 4.5 % purity loss [2],Buffer stability pH 7.4 % purity loss [2],remaining at 2 h [3] [%],Emax (% I) [4] [% I],EC50 [4] [pM],AUC(0-t) [5] [ng·h/mL],Cmax [5] [ng/mL],Tmax [5] [h],half-life [5] [h],SMILES
550,0.0/0.0 ^ %,0.0/0.0 ^ %,74,−2,> 250000,2710,159,5,5.8,CC[C@H](C)[C@H](NC(C)=O)C(=O)N[C@H](C(=O)N[C@@H](CC(C)C)C(=O)N[C@@H](CO)C(=O)N[C@@H](CC(C)C)C(=O)N[C@@H](CC(=O)O)C(=O)N[C@@H](C(=O)N1CCC[C@H]1C(=O)N[C@H](C(=O)N[C@@H](CCCCN)C(=O)N[C@@H](CC(C)C)C(=O)N[C@@H](CCCCNC(=O)COCCOCCNC(=O)COCCOCCNC(=O)CC[C@H](NC(=O)CCCCCCCCCCCCCCCCC(=O)O)C(=O)O)C(=O)N[C@@H](CCCCN)C(=O)N[C@H](C(=O)N[C@@H](CC(C)C)C(=O)N[C@@H](CC(C)C)C(=O)N[C@@H](CCC(=O)O)C(=O)N[C@@H](CCC(N)=O)C(=O)N[C@@H](CCC(=O)O)C(=O)N[C@@H](CCCCN)C(=O)N[C@@H](CCC(N)=O)C(=O)N[C@@H](CCCCN)C(=O)N[C@@H](CCCCN)C(=O)N[C@@H](CCC(N)=O)C(=O)N[C@@H](CCCNC(=N)N)C(=O)N[C@@H](CCC(=O)O)C(=O)N[C@@H](CCC(N)=O)C(=O)N[C@@H](C)C(=O)N[C@@H](CCC(=O)O)C(=O)N[C@H](C(=O)N[C@@H](CC(N)=O)C(=O)NC(C)(C)C(=O)N[C@@H](CCC(N)=O)C(=O)N[C@H](C(=O)N[C@@H](CC(C)C)C(=O)N[C@@H](C)C(=O)N[C@@H](CCC(N)=O)C(=O)N[C@H](C(N)=O)C(C)C)[C@@H](C)CC)[C@@H](C)O)[C@@H](C)CC)[C@@H](C)CC)C(C)C)C(C)C [compound 98] (Ac-IVLSLD[dV]PIKLK([AEEA-AEEA-γGlu-C18 diacid])KILLEQEKQKKQREQAETN[Aib]QILAQV-NH2)
260,0.0/0.0 ^ %,0.0/0.0 ^ %,82,37,–,2100,137,7,9.7,CC[C@H](C)[C@H](NC(C)=O)C(=O)N[C@H](C(=O)N[C@@H](CC(C)C)C(=O)N[C@@H](CO)C(=O)N[C@@H](CC(C)C)C(=O)N[C@@H](CC(=O)O)C(=O)N[C@@H](C(=O)N1CCC[C@H]1C(=O)N[C@H](C(=O)N[C@@H](CCCCN)C(=O)N[C@@H](CC(C)C)C(=O)N[C@@H](CCCCNC(=O)CC[C@H](NC(=O)CCCCCCCCCCCCCCCCC(=O)O)C(=O)O)C(=O)N[C@@H](CCCCN)C(=O)N[C@H](C(=O)N[C@@H](CC(C)C)C(=O)N[C@@H](CC(C)C)C(=O)N[C@@H](CCC(=O)O)C(=O)N[C@@H](CCC(N)=O)C(=O)N[C@@H](CCC(=O)O)C(=O)N[C@@H](CCCCN)C(=O)N[C@@H](CCC(N)=O)C(=O)N[C@@H](CCCCN)C(=O)N[C@@H](C)C(=O)N[C@@H](CCC(N)=O)C(=O)N[C@@H](CCCNC(=N)N)C(=O)N[C@@H](CCC(=O)O)C(=O)N[C@@H](CCC(N)=O)C(=O)N[C@@H](C)C(=O)N[C@@H](CCC(=O)O)C(=O)N[C@H](C(=O)N[C@@H](CC(N)=O)C(=O)NC1(C(=O)N[C@@H](CCC(N)=O)C(=O)N[C@H](C(=O)N[C@@H](CC(C)C)C(=O)N[C@@H](C)C(=O)N[C@@H](CCC(N)=O)C(=O)N[C@H](C(N)=O)C(C)C)[C@@H](C)CC)CCNCC1)[C@@H](C)O)[C@@H](C)CC)[C@@H](C)CC)C(C)C)C(C)C [compound 187] (Ac-IVLSLD[dV]PIKLK([γGlu-C18 diacid])KILLEQEKQKAQREQAETN[Api]QILAQV-NH2)
280,0.0/0.0 ^ %,0.0/0.0 ^ %,77,32,> 250000,2270,138,6,10.6,CC[C@H](C)[C@H](NC(C)=O)C(=O)N[C@H](C(=O)N[C@@H](CC(C)C)C(=O)N[C@@H](CO)C(=O)N[C@@H](CC(C)C)C(=O)N[C@@H](CC(=O)O)C(=O)N[C@@H](C(=O)N1CCC[C@H]1C(=O)N[C@H](C(=O)N[C@@H](CCCCN)C(=O)N[C@@H](CC(C)C)C(=O)N[C@@H](CCCCNC(=O)CC[C@H](NC(=O)CCCCCCCCCCCCCCCCC(=O)O)C(=O)O)C(=O)N[C@@H](CCCCN)C(=O)N[C@H](C(=O)N[C@@H](CC(C)C)C(=O)N[C@@H](CC(C)C)C(=O)N[C@@H](CCC(=O)O)C(=O)N[C@@H](CCC(N)=O)C(=O)N[C@@H](CCC(=O)O)C(=O)N[C@@H](CCCCN)C(=O)N[C@@H](CCC(N)=O)C(=O)N[C@@H](CCCCN)C(=O)NC(C)(C)C(=O)N[C@@H](CCC(N)=O)C(=O)N[C@@H](CCCNC(=N)N)C(=O)N[C@@H](CCC(=O)O)C(=O)N[C@@H](CCC(N)=O)C(=O)N[C@@H](C)C(=O)N[C@@H](CCC(=O)O)C(=O)N[C@H](C(=O)N[C@@H](CC(N)=O)C(=O)NC1(C(=O)N[C@@H](CCC(N)=O)C(=O)N[C@H](C(=O)N[C@@H](CC(C)C)C(=O)N[C@@H](C)C(=O)N[C@@H](CCC(N)=O)C(=O)N[C@H](C(N)=O)C(C)C)[C@@H](C)CC)CCNCC1)[C@@H](C)O)[C@@H](C)CC)[C@@H](C)CC)C(C)C)C(C)C [compound 188] (Ac-IVLSLD[dV]PIKLK([γGlu-C18 diacid])KILLEQEKQK[Aib]QREQAETN[Api]QILAQV-NH2)
300,–,0.0/Not Tested %,95,9,> 250000,1930,112,5,5.7,CC[C@H](C)[C@H](NC(C)=O)C(=O)N[C@H](C(=O)N[C@@H](CC(C)C)C(=O)N[C@@H](CO)C(=O)N[C@@H](CC(C)C)C(=O)N[C@@H](CC(=O)O)C(=O)N[C@@H](C(=O)N1CCC[C@H]1C(=O)N[C@H](C(=O)N[C@@H](CCCCN)C(=O)N[C@@H](CC(C)C)C(=O)N[C@@H](CCCCNC(=O)CC[C@H](NC(=O)CCCCCCCCCCCCCCCCC(=O)O)C(=O)O)C(=O)N[C@@H](CCCCN)C(=O)N[C@H](C(=O)N[C@@H](CC(C)C)C(=O)N[C@@H](CC(C)C)C(=O)N[C@@H](CCC(=O)O)C(=O)N[C@@H](CCC(N)=O)C(=O)N[C@@H](CCC(=O)O)C(=O)N[C@@H](CCCCN)C(=O)N[C@@H](CCC(N)=O)C(=O)N[C@@H](CCCCN)C(=O)NC(C)(C)C(=O)N[C@@H](CCC(N)=O)C(=O)N[C@@H](CCCNC(=N)N)C(=O)N[C@@H](CCC(=O)O)C(=O)N[C@@H](CCC(N)=O)C(=O)N[C@@H](C)C(=O)N[C@@H](CCC(=O)O)C(=O)N[C@H](C(=O)N[C@@H](CC(N)=O)C(=O)NC(C)(C)C(=O)N[C@@H](CCC(N)=O)C(=O)N[C@H](C(=O)N[C@@H](CC(C)C)C(=O)N[C@@H](C)C(=O)N[C@@H](CCC(N)=O)C(=O)N[C@H](C(N)=O)C(C)C)[C@@H](C)CC)[C@@H](C)O)[C@@H](C)CC)[C@@H](C)CC)C(C)C)C(C)C [compound 190] (Ac-IVLSLD[dV]PIKLK([γGlu-C18 diacid])KILLEQEKQK[Aib]QREQAETN[Aib]QILAQV-NH2)

# From US20260001928A1 (CORTERIA PHARMACEUTICALS, priority 2022, published 2026)
